Experimental data published in patent US7138361B2, “Herbicidal heterocycles” (E. I. du Pont de Nemours and Company, priority 2000, dated 2006).

How the values were obtained:
Format in all cases: in vivo
[1] = system: pigweed (Amaranthus retroflexus); assay: Test B preemergence
Outline: (§1)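 Seeds were planted and sprayed preemergence with test chemical in a non-phytotoxic solvent mixture containing surfactant; postemergence plants (2 to 18 cm, 1- to 4-leaf stage) received the same formulation. Greenhouse hold 13 to 15 days, then visual rating versus untreated controls on a 0–100 scale (0 no effect, 100 complete control).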

[2] = system: corn (Zea mays); assay: Test B preemergence
Outline: as §1

[3] = system: crabgrass (Digitaria sanguinalis); assay: Test B preemergence
Outline: as §1

[4] = system: giant foxtail (Setaria faberii); assay: Test B preemergence
Outline: as §1

[5] = system: cocklebur (Xanthium strumarium); assay: Test B preemergence
Outline: as §1

[6] = system: barnyardgrass (Echinochloa crus-galli); assay: Test B preemergence
Outline: as §1

[7] = system: Surinam grass (Brachiaria decumbens); assay: Test B preemergence
Outline: as §1

[8] = system: morning glory (Ipomoea hederacea); assay: Test B preemergence
Outline: as §1

[9] = system: velvetleaf (Abutilon theophrasti); assay: Test B preemergence
Outline: as §1

[10] = system: lambsquarters (Chenopodium album); assay: Test B preemergence
Outline: as §1

[11] = system: rice (Oryza saliva); assay: Test B preemergence
Outline: as §1

[12] = system: pigweed (Amaranthus retroflexus); assay: Test C preemergence; conditions: for Plant response rating (0 to 100), Pigweed: visual evaluation after 12 to 14 days
Outline: (§2)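 Response scores (0 no effect to 100 complete control) came from visual comparison with untreated controls 12 to 14 days after treatment. Preemergence application was made to seeded soil; postemergence, to plants at the 1- to 4-leaf stage.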

[13] = system: crabgrass (Digitaria sanguinalis); assay: Test C preemergence; conditions: for Plant response rating (0 to 100), Crabgrass: visual evaluation after 12 to 14 days
Outline: as §2

[14] = system: common ragweed (Ambrosia elatior); assay: Test C preemergence; conditions: for Plant response rating (0 to 100), Ragweed, Common: visual evaluation after 12 to 14 days
Outline: as §2

[15] = system: woolly cupgrass (Eriochloa villosa); assay: Test C preemergence; conditions: for Plant response rating (0 to 100), Cupgrass, Woolly: visual evaluation after 12 to 14 days
Outline: as §2

[16] = system: cocklebur (Xanthium strumarium); assay: Test C preemergence
Outline: as §2

[17] = system: Surinam grass (Brachiaria decumbens); assay: Test C preemergence; conditions: for Plant response rating (0 to 100), Surinam grass: visual evaluation after 12 to 14 days
Outline: as §2

[18] = system: Nightshade; assay: Test C preemergence
[19] = system: goosegrass (Eleusine indica); assay: Test C preemergence; conditions: for Plant response rating (0 to 100), Goosegrass: visual evaluation after 12 to 14 days
Outline: as §2

[20] = system: soybean (Glycine max); assay: Test C preemergence; conditions: for Plant response rating (0 to 100), Soybean: visual evaluation after 12 to 14 days
Outline: as §2

[21] = system: lambsquarters (Chenopodium album); assay: Test C preemergence; conditions: for Plant response rating (0 to 100), Lambsquarters: visual evaluation after 12 to 14 days
Outline: as §2

[22] = Preemergence, Rate 500 g/ha, scale 0 to 100, 0 no effect, 100 complete control
[23] = preemergence, Rate 125 g/ha, scale 0 to 100, 0 no effect, 100 complete control
[24] = Preemergence, Rate 500 g/ha, scale 0 to 100
[25] = Rate 62 g/ha, scale 0 to 100, 0 no effect, 100 complete control
[26] = Rate 125 g/ha, scale 0 to 100, 0 no effect, 100 complete control
[27] = preemergence, Rate 125 g/ha, scale of 0 to 100 where 0 is no effect and 100 is complete control, 13 to 15 days
[28] = preemergence, Rate 62 g/ha, scale 0 to 100
[29] = preemergence, Rate 250 g/ha, scale 0 to 100, 0 no effect, 100 complete control

## O=C1C(n2ccc(C3CCC3)n2)OCN1c1cccc(C(F)(F)F)c1 (centres unmarked) [Compound 39]
[1]; [22]
  Plant response rating, Pigweed: 100
[2]; [22]
  Plant response rating, Corn: 0
[2]; [23]
  Plant response rating, Corn: 0
[3]; [22]
  Plant response rating, Crabgrass: 100
[3]; [23]
  Plant response rating, Crabgrass: 0
[4]; [22]
  Plant response rating, Foxtail, Giant: 100
[4]; [23]
  Plant response rating, Foxtail, Giant: 30
[5]; [22]
  Plant response rating, Cocklebur: 0
[5]; [23]
  Plant response rating, Cocklebur: 0
[6]; [22]
  Plant response rating, Barnyardgrass: 100
[6]; [23]
  Plant response rating, Barnyardgrass: 50
[7]; [22]
  Plant response rating, Surinam grass: 20
[7]; [23]
  Plant response rating, Surinam grass: 20
[8]; [22]
  Plant response rating, Morningglory: 0
[9]; [22]
  Plant response rating, Velvetleaf: 0
[10]; [22]
  Plant response rating, Lambsquarters: 100
[10]; [23]
  Plant response rating, Lambsquarters: 100
[11]; [22]
  Plant response rating, Rice: 0
[12]; [24]
  Plant response rating, Pigweed: 100
[12]; [25]
  Plant response rating, Pigweed: 0
[12]; preemergence, Rate 250 g/ha
  Plant response rating (0 to 100), Pigweed: 0
[12]; [23]
  Plant response rating, Pigweed: 0
[13]; [24]
  Plant response rating, Crabgrass: 100
[13]; [25]
  Plant response rating, Crabgrass: 90
[13]; preemergence, Rate 250 g/ha
  Plant response rating (0 to 100), Crabgrass: 100
[13]; [23]
  Plant response rating, Crabgrass: 100
[14]; [24]
  Plant response rating, Ragweed, Common: 20
[14]; [25]
  Plant response rating, Ragweed, Common: 0
[14]; preemergence, Rate 250 g/ha
  Plant response rating (0 to 100), Ragweed, Common: 0
[14]; [23]
  Plant response rating, Ragweed, Common: 0
[15]; [24]
  Plant response rating, Cupgrass, Woolly: 100
[15]; [25]
  Plant response rating, Cupgrass, Woolly: 0
[15]; preemergence, Rate 250 g/ha
  Plant response rating (0 to 100), Cupgrass, Woolly: 90
[15]; [23]
  Plant response rating, Cupgrass, Woolly: 20
[16]; [24]
  Plant response rating, Cocklebur: 0
[16]; [25]
  Plant response rating, Cocklebur: 0
[17]; [24]
  Plant response rating, Surinam grass: 80
[17]; [25]
  Plant response rating, Surinam grass: 0
[17]; preemergence, Rate 250 g/ha
  Plant response rating (0 to 100), Surinam grass: 0
[17]; [23]
  Plant response rating, Surinam grass: 0
[18]; Rate 62 g/ha; scale 0 to 100, 0 no effect, 100 complete control
  Plant response rating, Nightshade: 0
[18]; [26]
  Plant response rating, Nightshade: 0
[18]; Rate 500 g/ha, scale 0 to 100
  Plant response rating, Nightshade: 0
[19]; [24]
  Plant response rating, Goosegrass: 100
[19]; [25]
  Plant response rating, Goosegrass: 80
[19]; preemergence, Rate 250 g/ha
  Plant response rating (0 to 100), Goosegrass: 100
[19]; [23]
  Plant response rating, Goosegrass: 90
[20]; [24]
  Plant response rating, Soybean: 0
[20]; [25]
  Plant response rating, Soybean: 0
[20]; preemergence, Rate 250 g/ha
  Plant response rating (0 to 100), Soybean: 0
[20]; [23]
  Plant response rating, Soybean: 0
[21]; [24]
  Plant response rating, Lambsquarters: 100
[21]; [25]
  Plant response rating, Lambsquarters: 100
[21]; preemergence, Rate 250 g/ha
  Plant response rating (0 to 100), Lambsquarters: 100
[21]; [23]
  Plant response rating, Lambsquarters: 100

## CCCOc1cc(N2CCC(n3ccc(C(C)(C)C)n3)C2=O)ccc1C (centres unmarked) [Compound 107]
[1]; [22]
  Plant response rating, Pigweed: 100
[1]; [27]
  Plant response rating, Pigweed: 80
[2]; [22]
  Plant response rating, Corn: 0
[2]; [27]
  Plant response rating, Corn: 0
[3]; [22]
  Plant response rating, Crabgrass: 100
[3]; [27]
  Plant response rating, Crabgrass: 0
[4]; [22]
  Plant response rating, Foxtail, Giant: 40
[4]; [27]
  Plant response rating, Foxtail, Giant: 0
[5]; [22]
  Plant response rating, Cocklebur: 20
[5]; [27]
  Plant response rating, Cocklebur: 0
[6]; [22]
  Plant response rating, Barnyardgrass: 30
[6]; [27]
  Plant response rating, Barnyardgrass: 0
[7]; [22]
  Plant response rating, Surinam grass: 70
[7]; [27]
  Plant response rating, Surinam grass: 0
[8]; [22]
  Plant response rating, Morningglory: 100
[8]; [27]
  Plant response rating, Morningglory: 0
[9]; [22]
  Plant response rating, Velvetleaf: 0
[9]; [27]
  Plant response rating, Velvetleaf: 0
[10]; [22]
  Plant response rating, Lambsquarters: 100
[10]; [27]
  Plant response rating, Lambsquarters: 100
[11]; [22]
  Plant response rating, Rice: 0
[11]; [27]
  Plant response rating, Rice: 0
[12]; [26]
  Plant response rating, Pigweed: 0
[12]; [28]
  Plant response rating, Pigweed: 90
[12]; preemergence, Rate 500 g/ha
  Plant response rating (0 to 100), Pigweed: 100
[12]; [29]
  Plant response rating, Pigweed: 0
[13]; [26]
  Plant response rating, Crabgrass: 100
[13]; [28]
  Plant response rating, Crabgrass: 100
[13]; preemergence, Rate 500 g/ha
  Plant response rating (0 to 100), Crabgrass: 100
[13]; [29]
  Plant response rating, Crabgrass: 100
[14]; [26]
  Plant response rating, Ragweed, Common: 30
[14]; [28]
  Plant response rating, Ragweed, Common: 0
[14]; preemergence, Rate 500 g/ha
  Plant response rating (0 to 100), Ragweed, Common: 70
[14]; [29]
  Plant response rating, Ragweed, Common: 60
[15]; [26]
  Plant response rating, Cupgrass, Woolly: 60
[15]; [28]
  Plant response rating, Cupgrass, Woolly: 50
[15]; preemergence, Rate 500 g/ha
  Plant response rating (0 to 100), Cupgrass, Woolly: 80
[15]; [29]
  Plant response rating, Cupgrass, Woolly: 80
[16]; [26]
  Plant response rating, Cocklebur: 0
[16]; [28]
  Plant response rating, Cocklebur: 0
[16]; preemergence, Rate 500 g/ha, visual evaluation after 12 to 14 days
  Plant response rating (0 to 100), Cocklebur: 0
[16]; [29]
  Plant response rating, Cocklebur: 0
[17]; [26]
  Plant response rating, Surinam grass: 0
[17]; [28]
  Plant response rating, Surinam grass: 0
[17]; preemergence, Rate 500 g/ha
  Plant response rating (0 to 100), Surinam grass: 0
[17]; [29]
  Plant response rating, Surinam grass: 0
[18]; Rate 62 g/ha, scale 0 to 100
  Plant response rating, Nightshade: 80
[18]; Rate 125 g/ha; scale 0 to 100, 0 no effect, 100 complete control
  Plant response rating, Nightshade: 90
[18]; Rate 250 g/ha, scale 0 to 100, 0 no effect, 100 complete control
  Plant response rating, Nightshade: 90
[19]; [26]
  Plant response rating, Goosegrass: 70
[19]; [28]
  Plant response rating, Goosegrass: 10
[19]; preemergence, Rate 500 g/ha
  Plant response rating (0 to 100), Goosegrass: 100
[19]; [29]
  Plant response rating, Goosegrass: 80
[20]; [26]
  Plant response rating, Soybean: 30
[20]; [28]
  Plant response rating, Soybean: 30
[20]; preemergence, Rate 500 g/ha
  Plant response rating (0 to 100), Soybean: 60
[20]; [29]
  Plant response rating, Soybean: 40
[21]; [26]
  Plant response rating, Lambsquarters: 100
[21]; [28]
  Plant response rating, Lambsquarters: 90
[21]; preemergence, Rate 500 g/ha
  Plant response rating (0 to 100), Lambsquarters: 100
[21]; [29]
  Plant response rating, Lambsquarters: 100
